Data taken from ChEMBL document CHEMBL5674860, “Optimized Dual-Glo Assay to identify co-culture-induced drug vulnerabilities in 3D CRC models” (2024).

Assays:
Type in all cases: functional, Homo sapiens
Parameters in all cases: dose or concentration left out as unconfirmed
[1] = system: Colon cancer organoid; assay: Optimized Dual-Glo assay to identify co-culture induced drug vulnerabilities using donated chemical probes and chemogenomics kinase set in O14 CRC organoid and F14 CAF mono and co-culture. […] Cell viability is reported both mono and co-culture models.
[2] = system: Colon cancer organoid; assay: Optimized Dual-Glo assay to identify co-culture induced drug vulnerabilities using donated chemical probes and chemogenomics kinase set in O06 CRC organoid and F06 CAF mono and co-culture. […] Cell viability is reported both mono and co-culture models.
[3] = system: Colon cancer organoid; assay: Optimized Dual-Glo assay to identify co-culture induced drug vulnerabilities using donated chemical probes and chemogenomics kinase set in O20 CRC organoid and F20 CAF mono and co-culture. […] Cell viability is reported both mono and co-culture models.
[4] = Culture type Co-Culture, Transduced with Lucferase2-P2A-EGFP lentivirus
[5] = Culture type Co-Culture, Transduced with Renilla-dsRed lentivirus
[6] = Culture type Mono-Culture, Transduced with Lucferase2-P2A-EGFP lentivirus
[7] = Culture type Mono-Culture, Transduced with Renilla-dsRed lentivirus

## Cc1cc(-n2nc(Cc3cc(F)cc(C(F)(F)F)c3)nc2C)ccc1C(N)=O [TP-024]
[1]; [4]
  Cell Viability: 111.425%
[1]; [5]
  Cell Viability: 96.0369%
[1]; [6]
  Cell Viability: 116.033%
[1]; [7]
  Cell Viability: 105.901%
[2]; [4]
  Cell Viability: 141.247%
[2]; [5]
  Cell Viability: 165.614%
[2]; [6]
  Cell Viability: 109.141%
[2]; [7]
  Cell Viability: 106.563%
[3]; [4]
  Cell Viability: 120.055%
[3]; [5]
  Cell Viability: 118.791%
[3]; [6]
  Cell Viability: 103.637%
[3]; [7]
  Cell Viability: 122.989%

## CC1CCN(c2ccnc(NCc3cn(C)cn3)n2)CC1 [TP-040]
[1]; [4]
  Cell Viability: 87.8979%
[1]; [5]
  Cell Viability: 100.433%
[1]; [6]
  Cell Viability: 106.891%
[1]; [7]
  Cell Viability: 94.952%
[2]; [4]
  Cell Viability: 72.882%
[2]; [5]
  Cell Viability: 83.2209%
[2]; [6]
  Cell Viability: 105.865%
[2]; [7]
  Cell Viability: 110.509%
[3]; [4]
  Cell Viability: 75.5826%
[3]; [5]
  Cell Viability: 95.0735%
[3]; [6]
  Cell Viability: 105.645%
[3]; [7]
  Cell Viability: 103.982%

## CN1CCN(c2ccnc(NCCc3ccccc3)n2)CC1 [TP-040n]
[1]; [4]
  Cell Viability: 93.1561%
[1]; [5]
  Cell Viability: 99.6193%
[1]; [6]
  Cell Viability: 147.697%
[1]; [7]
  Cell Viability: 101.671%
[2]; [4]
  Cell Viability: 79.4477%
[2]; [5]
  Cell Viability: 81.2059%
[2]; [6]
  Cell Viability: 106.155%
[2]; [7]
  Cell Viability: 134.56%
[3]; [4]
  Cell Viability: 67.1911%
[3]; [5]
  Cell Viability: 97.5889%
[3]; [6]
  Cell Viability: 115.175%
[3]; [7]
  Cell Viability: 123.14%

## CC(=O)Nc1cccc(-n2c(=O)n(C3CC3)c(=O)c3c(Nc4ccc(I)cc4F)n(C)c(=O)c(C)c32)c1 [TRAMETINIB]
[1]; [4]
  Cell Viability: 1.363%
[1]; [5]
  Cell Viability: 9.093%
[1]; [6]
  Cell Viability: 1.0764%
[1]; [7]
  Cell Viability: 6.441%
[2]; [4]
  Cell Viability: 4.434%
[2]; [5]
  Cell Viability: 57.2708%
[2]; [6]
  Cell Viability: 3.321%
[2]; [7]
  Cell Viability: 25.6485%
[3]; [4]
  Cell Viability: 2.051%
[3]; [5]
  Cell Viability: 46.1337%
[3]; [6]
  Cell Viability: 3.859%
[3]; [7]
  Cell Viability: 28.7914%

## Cc1ccc2[nH]c(CNCCCc3ccncc3)cc(=O)c2c1 [UCSF924NC]
[1]; [4]
  Cell Viability: 108.907%
[1]; [5]
  Cell Viability: 109.825%
[1]; [6]
  Cell Viability: 95.9143%
[1]; [7]
  Cell Viability: 99.591%
[2]; [4]
  Cell Viability: 92.2965%
[2]; [5]
  Cell Viability: 82.507%
[2]; [6]
  Cell Viability: 94.1046%
[2]; [7]
  Cell Viability: 89.0396%
[3]; [4]
  Cell Viability: 121.67%
[3]; [5]
  Cell Viability: 109.302%
[3]; [6]
  Cell Viability: 107.027%
[3]; [7]
  Cell Viability: 101.655%

## Cc1ccc2nc(CNCCCOc3ccccc3)cc(O)c2c1 [UCSF924]
[1]; [4]
  Cell Viability: 83.703%
[1]; [5]
  Cell Viability: 116.782%
[1]; [6]
  Cell Viability: 86.6693%
[1]; [7]
  Cell Viability: 107.391%
[2]; [4]
  Cell Viability: 107.729%
[2]; [5]
  Cell Viability: 156.395%
[2]; [6]
  Cell Viability: 110.04%
[2]; [7]
  Cell Viability: 105.774%
[3]; [4]
  Cell Viability: 114.798%
[3]; [5]
  Cell Viability: 125.381%
[3]; [6]
  Cell Viability: 97.5529%
[3]; [7]
  Cell Viability: 90.0539%

## CC(C)Oc1ccc(-c2nn([C@@H](C)c3oc4ccc(F)cc4c(=O)c3-c3cccc(F)c3)c3ncnc(N)c23)cc1F [UMBRALISIB]
[1]; [4]
  Cell Viability: 152.127%
[1]; [5]
  Cell Viability: 105.235%
[1]; [6]
  Cell Viability: 156.597%
[1]; [7]
  Cell Viability: 100.314%
[2]; [4]
  Cell Viability: 96.678%
[2]; [5]
  Cell Viability: 112.425%
[2]; [6]
  Cell Viability: 122.966%
[2]; [7]
  Cell Viability: 119.327%
[3]; [4]
  Cell Viability: 102.839%
[3]; [5]
  Cell Viability: 87.858%
[3]; [6]
  Cell Viability: 157.324%
[3]; [7]
  Cell Viability: 122.853%

## CC[C@@H]1CN(C(=O)NCC(F)(F)F)C[C@@H]1c1cnc2cnc3[nH]ccc3n12 [UPADACITINIB]
[1]; [4]
  Cell Viability: 168.996%
[1]; [5]
  Cell Viability: 89.117%
[1]; [6]
  Cell Viability: 123.387%
[1]; [7]
  Cell Viability: 83.332%
[2]; [4]
  Cell Viability: 104.182%
[2]; [5]
  Cell Viability: 86.3482%
[2]; [6]
  Cell Viability: 126.811%
[2]; [7]
  Cell Viability: 90.1732%
[3]; [4]
  Cell Viability: 123.754%
[3]; [5]
  Cell Viability: 83.5298%
[3]; [6]
  Cell Viability: 89.3672%
[3]; [7]
  Cell Viability: 88.6624%

## CNC(=O)c1ccccc1Nc1cc(Nc2ccc(N3CCOCC3)cc2OC)ncc1C(F)(F)F [VS-4718]
[1]; [4]
  Cell Viability: 33.8151%
[1]; [5]
  Cell Viability: 68.2368%
[1]; [6]
  Cell Viability: 15.2403%
[1]; [7]
  Cell Viability: 46.526%
[2]; [4]
  Cell Viability: 52.8737%
[2]; [5]
  Cell Viability: 57.2971%
[2]; [6]
  Cell Viability: 31.5838%
[2]; [7]
  Cell Viability: 48.5863%
[3]; [4]
  Cell Viability: 13.8337%
[3]; [5]
  Cell Viability: 72.4438%
[3]; [6]
  Cell Viability: 12.23%
[3]; [7]
  Cell Viability: 46.798%

## O=C(NNS(=O)(=O)c1ccccc1F)c1cc(F)cc(-c2ccccn2)c1 [WM-1119]
[1]; [4]
  Cell Viability: 33.671%
[1]; [5]
  Cell Viability: 171.323%
[1]; [6]
  Cell Viability: 39.6176%
[1]; [7]
  Cell Viability: 103.912%
[2]; [4]
  Cell Viability: 97.0333%
[2]; [5]
  Cell Viability: 108.11%
[2]; [6]
  Cell Viability: 61.3742%
[2]; [7]
  Cell Viability: 91.757%
[3]; [4]
  Cell Viability: 68.3772%
[3]; [5]
  Cell Viability: 152.012%
[3]; [6]
  Cell Viability: 102.739%
[3]; [7]
  Cell Viability: 96.1932%

## O=C(NNS(=O)(=O)c1ccccc1)c1cc(-c2ccnnc2)ccc1F [WM-2474]
[1]; [4]
  Cell Viability: 77.1469%
[1]; [5]
  Cell Viability: 98.8333%
[1]; [6]
  Cell Viability: 101.234%
[1]; [7]
  Cell Viability: 91.9977%
[2]; [4]
  Cell Viability: 92.1572%
[2]; [5]
  Cell Viability: 93.3483%
[2]; [6]
  Cell Viability: 72.4696%
[2]; [7]
  Cell Viability: 112.209%
[3]; [4]
  Cell Viability: 104.784%
[3]; [5]
  Cell Viability: 126.08%
[3]; [6]
  Cell Viability: 94.4259%
[3]; [7]
  Cell Viability: 109.751%

## C=CC(=O)N1CCC([C@@H]2CCNc3c(C(N)=O)c(-c4ccc(Oc5ccccc5)cc4)nn32)CC1 [ZANUBRUTINIB]
[1]; [4]
  Cell Viability: 47.5574%
[1]; [5]
  Cell Viability: 261.02%
[1]; [6]
  Cell Viability: 57.577%
[1]; [7]
  Cell Viability: 123.54%
[2]; [4]
  Cell Viability: 36.1998%
[2]; [5]
  Cell Viability: 136.235%
[2]; [6]
  Cell Viability: 10.7372%
[2]; [7]
  Cell Viability: 131.234%
[3]; [4]
  Cell Viability: 8.425%
[3]; [5]
  Cell Viability: 202.782%
[3]; [6]
  Cell Viability: 10.0679%
[3]; [7]
  Cell Viability: 138.33%

## Nc1nc(NCc2ccccc2)nc(-c2cccc(CO)c2)n1 [ZINC32547799]
[1]; [4]
  Cell Viability: 88.7631%
[1]; [5]
  Cell Viability: 96.1691%
[1]; [6]
  Cell Viability: 137.995%
[1]; [7]
  Cell Viability: 97.2983%
[2]; [4]
  Cell Viability: 97.3324%
[2]; [5]
  Cell Viability: 116.001%
[2]; [6]
  Cell Viability: 131.751%
[2]; [7]
  Cell Viability: 105.708%
[3]; [4]
  Cell Viability: 123.978%
[3]; [5]
  Cell Viability: 66.6285%
[3]; [6]
  Cell Viability: 56.0193%
[3]; [7]
  Cell Viability: 93.8657%

## FC(F)c1nc2ccccc2n1-c1nc(N2CCOCC2)nc(N2CCOCC2)n1 [ZSTK-474]
[1]; [4]
  Cell Viability: 66.4922%
[1]; [5]
  Cell Viability: 94.4439%
[1]; [6]
  Cell Viability: 94.5351%
[1]; [7]
  Cell Viability: 81.6405%
[2]; [4]
  Cell Viability: 29.4296%
[2]; [5]
  Cell Viability: 101.088%
[2]; [6]
  Cell Viability: 21.0208%
[2]; [7]
  Cell Viability: 93.8001%
[3]; [4]
  Cell Viability: 123.987%
[3]; [5]
  Cell Viability: 95.7276%
[3]; [6]
  Cell Viability: 79.3506%
[3]; [7]
  Cell Viability: 60.5776%
